Patent publication US20240317755A1, “HETEROCYCLIC COMPOUND, AND INTERMEDIATE THEREOF, PREPARATION METHOD THEREFOR AND USE THEREOF” (WUHAN LL SCIENCE AND TECHNOLOGY DEVELOPMENT CO., LTD., priority 2021, published 2024)
Read-outs that look alike come from different tables or passages of the source.

Assays:
[1] = molecular target: TRPC5 channel (Homo sapiens (Human), UniProt Q9UL62); assay: TRPC5 calcium flux assay (Fluo-4, FLIPR) in TRPC5-HEK 293 cells; type: cell-based; conditions: 0.3 nM Englerin A
Experimental: TRPC5 is a type of non-selective cation channel with permeability to calcium ions. […] Fluo-4 AM fluorescence dye was used to indirectly reflect the effect of the compound on TRPC5 channel by detecting intracellular Ca^2+ in TRPC5-HEK 293 cells.
• Revival solution: 100% high glucose DMEM • Selection medium: high glucose DMEM+10% FBS+1% P/S+1% HEPES+Blasticidin (5 μg/mL)+Hygromycine (50 μg/mL) • Induction medium: high glucose DMEM+10% FBS+1% P/S+1% HEPES+Doxycycline (1 μg/mL)
(§1) 14 hours before the real-time fluorescence experiment, cells were washed with PBS and digested with trypsin-EDTA. Cells were diluted to 200,000 cells/mL with induction medium and seeded onto a 96-well black wall bottom transparent plate coated with poly-D-lysine (PDL) (stock solution of 10 mg/mL, final concentration of 10 μg/mL) at 100 μL/well, i.e., 20,000 cells/well.
500 mL of external solution for detecting TRPC5 calcium signals: 4.0908 g of NaCl, 0.1864 g of KCl, 0.111 g of CaCl2, 0.0476 g of MgCl2, 0.9 g of glucose, 1.1915 g of HEPES (2-[4-(2-hydroxyethyl)piperazin-1-yl]ethanesulfonic acid).
Calcium fluorescent dye: an external solution for detecting TRPC5 calcium signals containing Fluo-4 with a final concentration of 4 μM (containing 0.5% BSA)
Positive inhibitor concentration: 100 nM
The dose-effect diagram was used to calculate AUC (area under the curve of the curve formed by the calcium flux signal), and the data and the log of the compound concentration were collected. The IC50 value was calculated using log[Inhibitor] vs. response Variable slope.
TRPC5 is a type of non-selective cation channel with permeability to calcium ions. […] Fluo-4 AM fluorescence dye was used to indirectly reflect the effect of the compound on TRPC5 channel by detecting intracellular […] in TRPC5-HEK 293 cells.
1. Cell culture 1.1 Revival of TRPC5-HEK 293 cells • Revival solution: 100% high glucose DMEM • Selection medium: high glucose DMEM+10% FBS+1% P/S+1% HEPES+Blasticidin (5 μg/mL)+Hygromycine (50 μg/mL) • Induction medium: high glucose DMEM+10% FBS+1% P/S+1% HEPES+Doxycycline (1 μg/mL)
as §1, with “trypsin-EDTA (TE).” for “trypsin-EDTA.”

[2] = Liver microsome half-life assay, monkey; type: in vitro ADME; conditions: liver microsomes, 1 mg/mL liver microsomal protein, 37° C., read-out: Liver microsome T½ (min) Monkey
Experimental: The in vitro metabolic stability of the compounds of the present disclosure was determined using warm incubation method of liver microsomes in various species. A proper amount of test compound was added to the liver microsomal reaction system (1 mg/mL liver microsomal protein, 25 U/mL glucose-6-phosphate dehydrogenase, 1 mM NADP, 6 mM D-glucose 6-phosphate, 5 mM MgCl2), and the reaction was started by warm incubation in a water bath at 37° C., then 100 μL of the reaction mixture at each time point was added to a centrifuge tube containing 400 μL of internal standard working solution precooled at 0° C. (containing a solution of 200 ng/mL dexamethasone, diclofenac, tolbutamide, and labetalol in acetonitrile), then the reaction was terminated, centrifuged at 4° C. and 10,000 g for 10 min, and the supernatant was taken into LC-MS for analysis and detection to obtain in vitro metabolic half-lives of the test compounds in liver microsomes of various species.

TRPC5 channel, sequence (Q9UL62 whole entry): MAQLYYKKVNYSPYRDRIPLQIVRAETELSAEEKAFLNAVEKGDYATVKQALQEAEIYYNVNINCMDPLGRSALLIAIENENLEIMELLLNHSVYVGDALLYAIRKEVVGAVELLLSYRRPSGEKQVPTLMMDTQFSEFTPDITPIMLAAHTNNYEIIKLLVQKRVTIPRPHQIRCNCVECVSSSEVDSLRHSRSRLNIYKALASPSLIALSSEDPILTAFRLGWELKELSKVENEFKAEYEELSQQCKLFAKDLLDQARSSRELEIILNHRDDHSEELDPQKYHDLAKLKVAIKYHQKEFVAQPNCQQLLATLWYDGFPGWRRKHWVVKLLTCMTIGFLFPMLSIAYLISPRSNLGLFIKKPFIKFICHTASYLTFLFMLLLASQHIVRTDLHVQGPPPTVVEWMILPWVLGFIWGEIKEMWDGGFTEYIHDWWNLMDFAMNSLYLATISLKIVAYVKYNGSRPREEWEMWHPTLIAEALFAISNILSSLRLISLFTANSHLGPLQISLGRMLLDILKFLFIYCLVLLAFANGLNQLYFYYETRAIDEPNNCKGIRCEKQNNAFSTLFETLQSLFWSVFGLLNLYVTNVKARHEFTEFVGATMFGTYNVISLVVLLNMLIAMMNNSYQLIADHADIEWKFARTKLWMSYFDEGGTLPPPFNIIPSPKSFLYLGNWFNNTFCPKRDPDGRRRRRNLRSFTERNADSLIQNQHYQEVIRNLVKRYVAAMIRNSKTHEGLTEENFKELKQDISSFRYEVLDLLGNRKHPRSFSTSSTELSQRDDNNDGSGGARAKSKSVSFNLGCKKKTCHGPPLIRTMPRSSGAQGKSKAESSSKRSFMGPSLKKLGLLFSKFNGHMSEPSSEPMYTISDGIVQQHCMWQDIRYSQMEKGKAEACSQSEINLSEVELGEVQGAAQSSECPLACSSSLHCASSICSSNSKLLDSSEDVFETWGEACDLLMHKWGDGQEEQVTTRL

IC50 ([1]; Table 1, read-out: TRPC5 inhibitory activity, IC50): 11.5 nM | IC50 ([1]; Table 11, read-out: TRPC5 inhibitory activity, IC50): 11.5 nM | half-life [2]: 247 min
SMILES: O=C(c1ccc(F)cc1C(F)(F)F)c1cnc2n1CCN(c1cn[nH]c(=O)c1Cl)C2 [Compound 1-6, 4-chloro-5-(3-(4-fluoro-2-(trifluoromethyl)benzoyl)-5,6-dihydroimidazo[1,2-a]pyrazin-7(8H)-yl)pyridazin-3(2H)-one]
